Entries after “also recorded” stand apart in the source; their conditions may differ. Where a SMILES comes first, the peptide text is derived from it. Where no end group is shown, it is not given here. The star is where a group is joined. Palmitoyl = CCCCCCCCCCCCCCCC(=O)*; Nonanoyl = CCCCCCCCC(=O)*
Columns and labels:
HeLa cells = type: in vitro ADME; conditions: HeLa cells; for degradability (percentual degradation by aggregate number): 2 µg peptide (10 µg mL-1) added to 20,000 cells, 37°C, aggregates > 10 µm2 in 1008 µm × 1008 µm at d3 (72 h) vs d0 (30 min), Proteostat, confocal, three technical replicates; for degradability by cells (in words): 2 µg peptide added to 20,000 cells, d0 (30 min) vs d3, degradable if number and size of aggregates are reduced after 3 days
Description: Confocal laser scanning microscopy and degradation study with PA library and HeLa cells: Confocal laser scanning microscopy studies were performed for the visualization of the cell‐PA interaction. HeLa cells were seeded one day prior to conducting the assay (20000/well) in an 8‐well IBIDI slide. 2 µL of the preformed peptide fibrils (1 mg mL^−1) were diluted with 2 µL Proteostat (Enzo Life Science, 1 µL stock in 99 µL PBS) and incubated for 10 min and further diluted with medium to receive a final peptide concentration of 10 µg mL^−1. The nucleus of the HeLa cells was stained with Hoechst 33 342 (NucBlue, Thermo Fisher Scientific). The peptide solution mixture was transferred to the HeLa cells and incubated for 30 min at 37°C before washing three times with PBS. The interaction of fibril clusters with cells was monitored after 30 min incubation time on a Stellaris 8 confocal laser scanning microscope (Leica) equipped with a 20x air objective and laser excitation wavelengths of 405 nm (Hoechst), and 561 nm (Proteostat). For the evaluation of aggregate degradation, the samples were further incubated at 37°C for 3 d and analyzed without any additional washing step. The evaluation of aggregate size and number was conducted by analyzing Proteostat stained aggregates via the 3D objects counter function of ImageJ 1.53f51 for 3 individual measurements (area 1008 µm × 1008 µm). […] The number of aggregates were determined by counting aggregates larger than the threshold 10 µm^2 in an area of 1008 µm × 1008 µm and repeated in three technical triplicates.
(§1) 7 Effects of PA modifications on properties and activity
(§2) To investigate the effects of modification in the PA sequence, we created various peptide amphiphiles derived from PA1 by varying the (I) hydrophobic moiety, (II) the linkage chemistry and (III) the peptide sequence (Figure S12, SI chapter 7.1 – 7.3). The color code for sequence representation is yellow for the hydrophobic moiety, blue for cationic amino acids, red for non-polar amino acids, purple for polar uncharged amino acids, and green for anionic amino acids. To be concise, only the summarized information will be discussed, all original data for the peptides are summarized in the (Figure S26 - […]
(§3) Figure S12 Summarized overview of peptide amphiphile library in which systematic variations the original sequence […]
(§4) chemistry and (III) the peptide sequence on infectivity enhancement and degradability (see SI chapter 7.1 – 7.3).
(§5) In the following section a compound is considered infectivity enhancing if n-fold infectivity at 1.3 µM is larger than 2. A compound is considered to form µm-sized aggregates if visible particles were observed in widefield microscopy (brightfield or ThT-staining filter, objective 10x) or confocal […]
(§6) than 1000 kcps in Zeta-Potential measurements.
(§7) For the degradability only the PAs which could be stained with Proteostat (Figure S26) and were visible in microscopy (Figure S15, Figure S18, Figure S21, and Figure S22) were studied in detail. To determine […]
whether a PA is degraded or not, Proteostat stained PAs which are added to Hela cells (2 µg peptide added to 20.000 cells) and studied via confocal laser scanning microscopy. Microscopy is conducted at day 0 (d0, after 30 min of incubation) and at day 3 (d3, after 72 h of incubation). The number of aggregates >10 µm2 is counted via 3D object counter in ImageJ in an area of 1008 µm × 1008 µm.
A PA is considered as degradable if the number and the size of aggregates are reduced after 3 days.
The efficiency is determined by the percentual degradation (aggregate number at d3 / aggregate number at d0). Three technical replicates were evaluated for each sample. A large deviation in number and size of aggregates represents a nonhomogeneous distribution and polymorphism of aggregates.

[1] = Microscopic aggregation (fluorescence / confocal microscopy, derived count rate); type: physicochemical; conditions: fibrils preformed at 1 mg mL-1 in PBS; ThT or Proteostat stain, widefield or confocal microscopy; derived count rate > 1000 kcps as criterion
Description: Transmission electron microscopy (TEM) measurements, Thioflavin (ThT), zeta‐potential measurements for fibril characterization, ATR‐IR spectra acquisition and the calculation of β−sheet were prepared and conducted analogous to a previous report.^[ [20], [86] ^] […] Fibrils were defined as distinct, if no visible structures could be identified in fluorescence and brightfield microscopy. […] The derived count rate of the zeta‐potential measurement was used as information on the light scattering intensity and turbidity of the sample as a further indicator for microscopic aggregation.^[ [90] ^]
Fluorescence microscopy: 1 µL Fibrils (1 mg mL^−1) were stained with 9 µL, 50 µM ThT. 10 µL of the stained fibrils (0.1 mg mL^−1) were placed on a microscopy glass. Fluorescence microscopy measurements were performed on a Leica DMi8 microscope with 10x air objective and equipped with a Leica MC170 HD camera with a filter setting λem = 527/30 nm upon excitation at λex = 480/40 nm) and processed with the Leica LASX software.
as §1, §2, §3, §4, §5, §6, §7
whether a PA is degraded or not, Proteostat stained PAs which are added to Hela cells (2 µg peptide added to 20.000 cells) and studied via confocal laser scanning microscopy. […]
In the following, we will distinguish between three aggregation types for fibrillar structures: Fibrils which were not aggregating (below resolution limit of the microscope, approx. 650 nm), moderately aggregating (< 50 µm2) and aggregating to large particles (> 50 µm 2).
7.1 Effects of hydrophobic moiety exchange on properties and activity
To investigate the effects of varying hydrophobic moieties on assembly, aggregation and activity , we

[2] = tested on: HIV-1 infection of TZM-bl cells; assay: HIV-1 infection assay (β-galactosidase luminescence reporter); type: cell-based; conditions: infectivity enhancing if n-fold at 1.3 µM larger than 2
Description: HIV‐1 Infection Assay: The effect of peptide fibrils on HIV‐1 infection was studied via a luminescence assay for β‐galactosidase, which was reported by TZM‐bl cells upon infection. 10000 TZM‐bl cells were seeded in 180 µl supplemented DMEM one day prior infection. The cells were inoculated with 20 µl PNF solution 1:1 (v/v) mixed with virus (1:500 dilution) after an incubation time of 10 min. The HIV‐1 infection assay was conducted in three technical replicates and repeated in three independent experiments unless stated otherwise. The assay was conducted as described before.^[ [20] ^]

In the case of CCCCCCCCCCCCCCCC(=O)N[C@@H](C)C(=O)N[C@@H](CCCCN)C(=O)N[C@@H](C)C(=O)N[C@H](C(=O)NCC(=O)N[C@@H](CCCCN)C(N)=O)C(C)C [C16-AKAVGK-NH2] (Palmitoyl-AKAVGK-NH2), the “degradability (percentual degradation by aggregate number)” value (HeLa cells) is reported as 89%.

In the case of CCCCCCCCCCCCCCCC(=O)N[C@@H](CCCNC(=N)N)C(=O)N[C@@H](CCCNC(=N)N)C(=O)N[C@@H](Cc1c[nH]c2ccccc12)C(=O)N[C@@H](CCC(N)=O)C(=O)N[C@@H](Cc1c[nH]c2ccccc12)C(=O)N[C@@H](CCCNC(=N)N)C(N)=O [C16-RRWQWR-NH2] (Palmitoyl-RRWQWR-NH2), the “formation of µm-sized aggregates (in words)” value (“formation” for short) [1] is reported as “not forming µm-sized aggregates and forming too few/less aggregates, respectively; also recorded: cannot form µm‐sized aggregates” and the “infectivity enhancement of HIV-1 (in words)” value [2] is reported as “Inactive”.

With CCCCCCCCCCCCCCCC(=O)N[C@@H](C)C(=O)N[C@H](C(=O)N[C@@H](C)C(=O)N[C@@H](CCCCN)C(=O)N[C@@H](CCCCN)C(=O)N[C@@H](CCCCN)C(N)=O)C(C)C [C16-AVAKKK-NH2] (Palmitoyl-AVAKKK-NH2) the “formation” value [1] was “not forming µm-sized aggregates and forming too few/less aggregates, respectively”.

With “C16-AQAKAK [library peptide amphiphile, palmitic acid at the N-terminus]” the “formation” value [1] was “very large aggregates” and the “degradability by cells (in words)” value (HeLa cells) was “degraded incompletely”.

With CCCCCCCCCCCCCCCC(=O)N[C@@H](CCCCN)C(=O)N[C@@H](Cc1ccc(O)cc1)C(=O)N[C@H](C(=O)N[C@@H](Cc1c[nH]cn1)C(=O)N[C@@H](CCC(N)=O)C(=O)N[C@@H](CC(N)=O)C(=O)N[C@@H](Cc1ccc(O)cc1)C(=O)N[C@H](C(=O)N[C@@H](CCCCN)C(=O)N[C@@H](C)C(=O)N[C@@H](CC(C)C)C(=O)N[C@@H](C)C(=O)NCC(=O)N[C@@H](CCCCN)C(=O)N[C@@H](CC(C)C)C(=O)N[C@H](C(N)=O)C(C)C)[C@@H](C)O)[C@@H](C)CC (Palmitoyl-KYIHQNYTKALAGKLV-NH2) the “formation” value [1] was “very large aggregates” and the “degradability by cells (in words)” value (HeLa cells) was “degraded incompletely”.

For NFYLQVNKINK-NH2, the “degradability by cells (in words)” value (HeLa cells) was “no good degradability”.

In the case of CCCCCCCCCCCCCCCC(=O)N[C@@H](C)C(=O)N[C@@H](C)C(=O)N[C@H](C(=O)N[C@H](C(=O)N[C@@H](Cc1c[nH]cn1)C(=O)N[C@@H](Cc1c[nH]cn1)C(=O)N[C@@H](CCCCN)C(N)=O)C(C)C)C(C)C [C16-AAVVHHK-NH2] (Palmitoyl-AAVVHHK-NH2), the “formation” value [1] is reported as “very large aggregates” and the “degradability by cells (in words)” value (HeLa cells) is reported as “degraded incompletely”.

With CCCCCCCCCCCCCCCC(=O)OC[C@H](N)C(=O)N[C@H](C(=O)N[C@H](C(=O)N[C@H](C(=O)N[C@@H](C)C(=O)N[C@@H](C)C(=O)N[C@@H](C)C(=O)N[C@@H](CCCCN)C(=O)N[C@@H](CCCCN)C(=O)N[C@@H](CCCCN)C(N)=O)C(C)C)C(C)C)C(C)C (H-S(Palmitoyl)VVVAAAKKK-NH2) the “degradability by cells (in words)” value (HeLa cells) was “degraded well”.

With CCCCCCCCC(=O)N[C@H](C(=O)N[C@H](C(=O)N[C@H](C(=O)N[C@@H](C)C(=O)N[C@@H](C)C(=O)N[C@@H](C)C(=O)N[C@@H](CCCCN)C(=O)N[C@@H](CCCCN)C(=O)N[C@@H](CCCCN)C(N)=O)C(C)C)C(C)C)C(C)C [C9] (Nonanoyl-VVVAAAKKK-NH2) the “degradability by cells (in words)” value (HeLa cells) was “reduced in number of aggregates, but increases in size”.

With CCCCCCCCCCCCCCCC(=O)N[C@@H](CC(C)C)C(=O)N[C@@H](CC(N)=O)C(=O)NCC(=O)NCC(=O)N[C@H](C(=O)N[C@@H](CCCCN)C(=O)N[C@@H](CCCCN)C(N)=O)C(C)C [C16-LNGGVKK-NH2] (Palmitoyl-LNGGVKK-NH2) the “degradability (percentual degradation by aggregate number)” value (HeLa cells) was 48%.

For CCCCCCCCCCCCCCCC(=O)N[C@@H](CC(N)=O)C(=O)N[C@@H](Cc1ccccc1)C(=O)N[C@@H](Cc1ccc(O)cc1)C(=O)N[C@@H](CC(C)C)C(=O)N[C@@H](CCC(N)=O)C(=O)N[C@H](C(=O)N[C@@H](CC(N)=O)C(=O)N[C@@H](CCCCN)C(=O)N[C@H](C(=O)N[C@@H](CC(N)=O)C(=O)N[C@@H](CCCCN)C(N)=O)[C@@H](C)CC)C(C)C (Palmitoyl-NFYLQVNKINK-NH2), the “formation” value [1] was “very large aggregates” and the “degradability by cells (in words)” value (HeLa cells) was “degraded incompletely”.

With “C16‐thioester‐CVVVAAAKKK‐NH2 [PA1 variant with thioester linker]” the “formation” value [1] was “small, well distributed aggregates” and the “degradability (percentual degradation by aggregate number)” value (HeLa cells) was 87%.

In the case of CCCCCCCCCCCCCCCC(=O)N[C@H](C(=O)N[C@H](C(=O)N[C@@H](C)C(=O)N[C@@H](C)C(=O)N[C@@H](Cc1c[nH]cn1)C(=O)N[C@@H](Cc1c[nH]cn1)C(=O)N[C@@H](Cc1c[nH]cn1)C(N)=O)C(C)C)C(C)C [C16-VVAAHHH-NH2] (Palmitoyl-VVAAHHH-NH2), the “formation” value [1] is reported as “very large aggregates” and the “degradability by cells (in words)” value (HeLa cells) is reported as “increase in size, decrease in number”.

With CCCCCCCCCCCCCCCC(=O)N[C@@H](CCCCN)C(=O)N[C@H](C(=O)N[C@H](C(=O)N[C@@H](CO)C(=O)N[C@@H](Cc1ccccc1)C(=O)N[C@@H](CCCCN)C(N)=O)[C@@H](C)CC)[C@@H](C)CC [C16-KIISFK-NH2] (Palmitoyl-KIISFK-NH2) the “formation” value [1] was “very large aggregates” and the “degradability by cells (in words)” value (HeLa cells) was “degraded incompletely”.

In the case of CCCCCCCCCCCCCCCC(=O)N[C@@H](C)C(=O)N[C@@H](CC(C)C)C(=O)N[C@@H](C)C(=O)N[C@@H](C)C(=O)NCC(=O)N[C@@H](CCCCN)C(=O)N[C@@H](CCCCN)C(N)=O [C16-ALAAGKK-NH2] (Palmitoyl-ALAAGKK-NH2), the “degradability (percentual degradation by aggregate number)” value (HeLa cells) is reported as 87%.

Reference: article PMC11468294, “Peptide Amphiphiles as Biodegradable Adjuvants for Efficient Retroviral Gene Delivery” (Advanced Healthcare Materials, 2023)
